From patent EP0099438A1, “2-Functionalised diaryl as-triazines useful in therapy” (PIERRE FABRE S.A., priority 1982, dated 1984)

Tests used:
[1] = Acute oral toxicity in mice (LD50, method of Miller and Tainter); details: in vivo; mouse about 20 g, oral administration; read-out: DL50 voie orale
Excerpt: L'étude de la toxicité a été effectuée chez la souris conventionnelle pesant environ 20 grammes.
Les substances ont été administrées par voie orale. Les doses létales 50 sont exprimées en mg/kg et ont été calculées selon la méthode de MILLER et TAINTER, Proc. Scc. Exper. Biol. Med. 1944, 57, 261.

souris = assay: Phenylbenzoquinone (PBQ) writhing test (Siegmund), analgesic activity; type: in vivo; details: po, 0.5 h; mouse, per os 30 minutes before intraperitoneal PBQ injection; read-out: DE50 (the source's name)
Protocol: L'activité sur le test des contorsions à la phényl benzoquinone (PBQ) selon SIEGMUND et Coll., J. Pharm. Exptl. Ther. 1957, 119, 453, a été déterminée après administration du produit per os; la dose est exprimée en mg/kg chez la souris 30 minutes avant l'injection intra-péritonéale de l'agent algogène.
Les résultats sont exprimés en pourcentage de variation du nombre de contorsions. Pour les molécules les plus actives nous avons déterminé la DE50, les résultats sont répertoriés dans le tableau suivant : […]

[2] = Qualitative solubility in water and solvents; type: physicochemical; details: for Insoluble dans: media in which the compound is insoluble; for Soluble dans: media in which the compound is soluble
P.R.P. de LAPIN = assay: In vitro platelet anti-aggregation, arachidonic acid-induced, in rabbit PRP; type: cell-based; details: dissolved in PEG 400, incubated 1 minute with PRP before arachidonic acid 2 x 10^-4M; ranking in words
Excerpt: Les produits sont dissous dans le PEG 400, puis additionnés au P.R.P. de LAPIN puis incubés une minute avant l'addition d'agent agrégant (acide arachidonique 2 x 10^-4M). Le produit le plus actif est le ST 938.

| SMILES | LD50 [1] | ED50 (souris) | Insoluble dans [2] | Soluble dans [2] | Propriétés antiagrégantes (in vitro) (P.R.P. de LAPIN) |
| --- | --- | --- | --- | --- | --- |
| CN(C)c1ccc(-c2nc(=O)n(CC(N)=O)nc2-c2ccc(N(C)C)cc2)cc1 [ST 812, Oxo-3 acétamido-2 di(paradiméthylaminophényl)-5-6 as triazine] | > 1000 mg/kg | 12 mg/kg | l'eau, les bases diluées, les alcools, le benzène et l'éther | les acides dilués et le chlorure de méthylène |  |
| CCOC(=O)C(C(=O)OCC)n1nc(-c2ccc(OC)cc2)c(-c2ccc(OC)cc2)nc1=O [ST 824, Oxo-3 diéthylmalonyl-2 di(paraméthoxyphényl)-5-6 as triazine] | > 1000 mg/kg |  | l'eau, les bases et les acides dilués et l'éther | les alcools, le benzène, le chlorure de méthylène et le chloroforme |  |
| CN(C)c1ccc(-c2nc(=O)n(CCCCl)nc2-c2ccc(N(C)C)cc2)cc1 [ST 882, Oxo-3 γ-chloropropyl-2 di(paradiméthyiaminophényl) 5-6 as triazine] | > 1000 mg/kg | 4.6 mg/kg | l'eau et les bases diluées, et l'éther | les acides dilués aqueux, les alcools, le benzène, le chlorure de méthylène et le chloroforme |  |
| COc1ccc(-c2nc(=O)n(CCN3CCOCC3)nc2-c2ccc(OC)cc2)cc1 [ST 728, Oxo-3 morpholino éthyl-2 di(paraméthoxyphényl)-5-6 as triazine] | > 1000 mg/kg |  | l'eau, les bases diluées et l'éther | les acides, les alcools, le benzène, le chlorure de méthylène et le chloroforme |  |
| CN(C)c1ccc(-c2nc(=O)n(CC(O)CO)nc2-c2ccc(N(C)C)cc2)cc1 (stereo not shown) [ST 886] | > 1000 mg/kg | 5.6 mg/kg | l'eau et les bases diluées, l'éther | les acides dilués aqueux, les alcools, le benzène, le chlorure de méthylène et le chloroforme |  |
| COc1ccc(-c2nc(=O)n(C(C)CN(C)C)nc2-c2ccc(OC)cc2)cc1 (stereo not shown) [ST 766] | 750 mg/kg | 11 mg/kg | l'eau, les bases diluées, le benzène et l'éther | les acides dilués, les alcools, le chlorure de méthylène et le chloroforme |  |
| C=COCCn1nc(-c2ccc(OC)cc2)c(-c2ccc(OC)cc2)nc1=O [ST 777, Oxo-3 vinyloxyéthyl-2 di(paraméthoxyphényl)-5-6 as triazine] | > 1000 mg/kg | 10 mg/kg | l'eau, les bases et les acides dilués et l'éther | les alcools, le benzène, le chlorure de méthylène et le chloroforme |  |
| CN(C)c1ccc(-c2nc(=O)n(CCOC(=O)c3cccnc3)nc2-c2ccc(N(C)C)cc2)cc1 [ST 883, Oxo-3 nicotinoyloxyéthyl-2 di(paradiméthylaminophényl) 5-6 as triazine] | > 1000 mg/kg | 3.1 mg/kg | l'eau et les bases diluées, l'éther | les acides dilués, les alcools, le benzène, le chloroforme et le chlorure de méthylène |  |
| COc1ccc(-c2nc(=O)n(CCCCl)nc2-c2ccc(OC)cc2)cc1 [ST 938, Oxo-3 chloropropyl-2 di(paraméthoxyphényl)-5-6 as triazine] | ≥ 1000 mg/kg |  | l'eau, les bases et les acides dilués et l'éther | les alcools, le benzène, le chlorure de méthylène et le chloroforme | le plus actif |
| C=CCNCCCn1nc(-c2ccc(OC)cc2)c(-c2ccc(OC)cc2)nc1=O [ST 876, Oxalatede l'oxo-3 γallylamino propyl-2 di(paraméthoxyphényl)-5-6 as triazine] | 750 mg/kg |  | le benzène, l'éther et le chloroforme | l'eau, les alcools, et le chlorure de méthylène |  |
| COc1ccc(-c2nc(=O)n(CCO)nc2-c2ccc(OC)cc2)cc1 [ST 791, Oxo-3 hydroxyéthyl-2 di(paraméthoxyphényl)-5-6 as triazine] | > 1000 mg/kg | 9 mg/kg | l'eau, les bases et les acides dilués et l'éther | les alcools, le benzène, le chlorure de méthylène et le chloroforme |  |
| CN(C)c1ccc(-c2nc(=O)n(CCO)nc2-c2ccc(N(C)C)cc2)cc1 [ST 817, Oxo-3 hydroxyéthyl-2 di(paradimétnylaminophényl)-5-6 as triazine] | > 1000 mg/kg | 1.5 mg/kg | les bases diluées aqueuses, l'eau, le benzène et l'éther | les acides dilués, les alcools, le chlorure de méthylène et le chloroforme |  |
| COc1ccc(-c2nc(=O)n(CCCN3CCN(C)CC3)nc2-c2ccc(OC)cc2)cc1 [ST 881, Dichlorhydratede l'oxo-3 N méthyl piperazinyl-3' propyl-2 di(paraméthoxyphényl)-5-6 as triazine] | > 1000 mg/kg | 6.7 mg/kg | le benzène, le chlorure de méthylène et le chloroforme | l'eau, les acides dilués et les alcools |  |
